# Reference: US7186831B2, “5-halo-2-alkyl[1,2,4]triazolo[1,5-a]pyrimidin-7-amines” (priority 2001, dated 2007)
# Assay: log P by HPLC
# Format: physicochemical
# Conditions: EEC directive 79/831 Annex V. A8 by HPLC (gradient method, acetonitrile/0.1% aqueous phosphoric acid)
row,logP,Structure (SMILES)
1,2.96,Cc1nc2nc(Cl)c(-c3ccc(F)cc3F)c(N3CCC(F)CC3)n2n1 [compound 454]
2,3.33,Cc1nc2nc(Cl)c(-c3c(F)cccc3F)c(N3CCCCC3C(F)(F)F)n2n1 (stereo not drawn) [compound 423]
3,3.3,Cc1nc2nc(Cl)c(-c3ccccc3F)c(NOCc3ccc(Cl)cc3)n2n1 [compound 368]
4,3.32,Cc1nc2nc(Cl)c(-c3ccc(F)cc3F)c(N3CCCCC3)n2n1 [compound 295]

# Second part, the compound before the results:
row,Structure (SMILES),logP
1,CCCN(CC1CCCCO1)c1c(-c2c(F)cccc2F)c(Cl)nc2nc(C)nn12 (stereo not drawn) [compound 346],3.95
2,Cc1ccc(Nc2c(-c3ccc(F)cc3F)c(Cl)nc3nc(C)nn23)cc1 [compound 298],3.05
3,CONc1c(-c2c(F)cccc2F)c(Cl)nc2nc(C)nn12 [compound 436],2.07
4,C=C(C)CN(C)c1c(-c2ccccc2Cl)c(Cl)nc2nc(C3CC3)nn12 [compound 496],4.32
5,Cc1nc2nc(Cl)c(-c3c(F)cccc3Cl)c(N(C)CC(C)C)n2n1 [compound 276],3.68
6,Cc1nc2nc(Cl)c(-c3c(F)cccc3F)c(NOCc3cc(Cl)cc(Cl)c3)n2n1 [compound 428],3.75

# Same assay, conditions: HPLC, gradient method, acetonitrile/0.1% aqueous phosphoric acid; EEC directive 79/831 Annex V. A8
row,logP,Structure (SMILES)
1,4.08,CC(C)CN(C)c1c(-c2c(F)cccc2F)c(Cl)nc2nc(C3CC3)nn12 [compound 676]
2,2.78,Fc1cccc(F)c1-c1c(Cl)nc2nc(C3CC3)nn2c1N1CCOCC1 [compound 683]
3,4.56,C=C(C)CN(CC)c1c(-c2ccc(Cl)cc2Cl)c(Cl)nc2nc(C)nn12 [compound 783]
4,4.34,C=C(C)CN(CC)c1c(-c2c(F)cc(F)cc2F)c(Cl)nc2nc(CC)nn12 [compound 15]
5,4.46,Fc1cc(F)c(-c2c(Cl)nc3nc(C(F)(F)F)nn3c2N2CCCCC2)c(F)c1 [compound 104]
6,4.73,CC(C)CC(C)Nc1c(-c2ccc(F)cc2F)c(Cl)nc2nc(C(F)(F)F)nn12 (stereo not drawn) [compound 818]
7,3.96,C=CCN(CC)c1c(-c2ccc(F)cc2F)c(Cl)nc2nc(C3CC3)nn12 [compound 591]
8,4.32,COC(=O)C1CCCCN1c1c(-c2ccc(F)cc2F)c(Cl)nc2nc(C(F)(F)F)nn12 (stereo not drawn) [compound 804]
9,2.8,C=C(C)CNc1c(-c2c(F)cccc2Cl)c(Cl)nc2nc(C)nn12 [compound 250]
10,4.1,Fc1cccc(Cl)c1-c1c(Cl)nc2nc(C3CC3)nn2c1N1CCCC1C(F)(F)F (stereo not drawn) [compound 703]
11,4.31,C=C(C)CN(CC)c1c(-c2c(F)cccc2F)c(Cl)nc2nc(C3CC3)nn12 [compound 752]

# Continued, compound first:
row,Structure (SMILES),logP
1,Cc1nc2nc(Cl)c(-c3c(F)cc(F)cc3F)c(N(C)CC3OCCO3)n2n1 [compound 151],2.67
2,CN(Cc1ccco1)c1c(-c2ccc(F)cc2F)c(Cl)nc2nc(C3CC3)nn12 [compound 667],3.63
3,Cc1nc2nc(Cl)c(-c3c(F)cc(F)cc3F)c(NCC3CC3)n2n1 [compound 68],2.86
4,CC1(C)CCN(c2c(-c3ccc(F)cc3F)c(Cl)nc3nc(C4CC4)nn23)CC1 [compound 615],4.67
5,Cc1nc2nc(Cl)c(-c3c(F)cccc3F)c(NC3CCCC3)n2n1 [compound 173],2.97
6,CCCN(CC1CC1)c1c(-c2ccc(F)cc2F)c(Cl)nc2nc(C3CC3)nn12 [compound 598],4.53
7,C=C(C)CNc1c(-c2ccc(F)cc2F)c(Cl)nc2nc(C(F)(F)F)nn12 [compound 534],3.75
8,CC(C)(Nc1c(-c2c(F)cc(F)cc2F)c(Cl)nc2nc(C(F)(F)F)nn12)C(F)(F)F [compound 105],4.37
9,Fc1ccc(-c2c(Cl)nc3nc(C4CC4)nn3c2NC2CCCC2)c(Cl)c1 [compound 624],4.13
10,CCCN(CC1CCCO1)c1c(-c2ccc(F)cc2F)c(Cl)nc2nc(C3CC3)nn12 (stereo not drawn) [compound 600],4.22
11,C=CCN(CC)c1c(-c2ccc(F)cc2F)c(Cl)nc2nc(C(F)(F)F)nn12 [compound 548],4.4
12,CC(Nc1c(-c2ccc(F)cc2F)c(Cl)nc2nc(C3CC3)nn12)C1CCCCC1 (stereo not drawn) [compound 653],4.84
